From publication PMC10388311, “Innovative Strategy toward Mutant CFTR Rescue in Cystic Fibrosis: Design and Synthesis of Thiadiazole Inhibitors of the E3 Ligase RNF5” (Journal of Medicinal Chemistry, 2023)
“Also recorded” adds a separate entry of the source.

Columns and labels:
[1] = molecular target: F508del-CFTR in CFBE41o– cells (Homo sapiens, UniProt Q99942); test: HS-YFP microfluorimetric assay of F508del-CFTR rescue (corrector activity); format: cell-based; settings: for F508del-CFTR corrector activity compared with inh-2 (CFTR activity, primary screen): CFBE41o– cells co-expressing F508del-CFTR and HS-YFP, 24 h treatment, Figure 5; for improvement of the rescue elicited by the double combination VX-661 + VX-445 / mutant CFTR activity upon co-treatment with VX-809 or VX-445: RNF5 inhibitor 5 μM; for improvement of the rescue elicited by the double combination VX-661 + VX-445: VX-661 + VX-445 10 μM + 3 μM; for mutant CFTR activity upon co-treatment with VX-809 or VX-445: VX-809 3 μM, VX-445 3 μM
F508del-CFTR in CFBE41o– cells, sequence (Q99942 2-180): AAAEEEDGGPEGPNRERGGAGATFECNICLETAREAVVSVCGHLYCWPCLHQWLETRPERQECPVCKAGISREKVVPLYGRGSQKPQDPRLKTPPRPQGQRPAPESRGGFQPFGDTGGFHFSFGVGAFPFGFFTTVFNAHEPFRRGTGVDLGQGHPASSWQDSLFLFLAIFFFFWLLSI
F508del-CFTR in CFBE41o– cells, sequence (P13569 with tags, fused parts or gaps DEL508-508 partner): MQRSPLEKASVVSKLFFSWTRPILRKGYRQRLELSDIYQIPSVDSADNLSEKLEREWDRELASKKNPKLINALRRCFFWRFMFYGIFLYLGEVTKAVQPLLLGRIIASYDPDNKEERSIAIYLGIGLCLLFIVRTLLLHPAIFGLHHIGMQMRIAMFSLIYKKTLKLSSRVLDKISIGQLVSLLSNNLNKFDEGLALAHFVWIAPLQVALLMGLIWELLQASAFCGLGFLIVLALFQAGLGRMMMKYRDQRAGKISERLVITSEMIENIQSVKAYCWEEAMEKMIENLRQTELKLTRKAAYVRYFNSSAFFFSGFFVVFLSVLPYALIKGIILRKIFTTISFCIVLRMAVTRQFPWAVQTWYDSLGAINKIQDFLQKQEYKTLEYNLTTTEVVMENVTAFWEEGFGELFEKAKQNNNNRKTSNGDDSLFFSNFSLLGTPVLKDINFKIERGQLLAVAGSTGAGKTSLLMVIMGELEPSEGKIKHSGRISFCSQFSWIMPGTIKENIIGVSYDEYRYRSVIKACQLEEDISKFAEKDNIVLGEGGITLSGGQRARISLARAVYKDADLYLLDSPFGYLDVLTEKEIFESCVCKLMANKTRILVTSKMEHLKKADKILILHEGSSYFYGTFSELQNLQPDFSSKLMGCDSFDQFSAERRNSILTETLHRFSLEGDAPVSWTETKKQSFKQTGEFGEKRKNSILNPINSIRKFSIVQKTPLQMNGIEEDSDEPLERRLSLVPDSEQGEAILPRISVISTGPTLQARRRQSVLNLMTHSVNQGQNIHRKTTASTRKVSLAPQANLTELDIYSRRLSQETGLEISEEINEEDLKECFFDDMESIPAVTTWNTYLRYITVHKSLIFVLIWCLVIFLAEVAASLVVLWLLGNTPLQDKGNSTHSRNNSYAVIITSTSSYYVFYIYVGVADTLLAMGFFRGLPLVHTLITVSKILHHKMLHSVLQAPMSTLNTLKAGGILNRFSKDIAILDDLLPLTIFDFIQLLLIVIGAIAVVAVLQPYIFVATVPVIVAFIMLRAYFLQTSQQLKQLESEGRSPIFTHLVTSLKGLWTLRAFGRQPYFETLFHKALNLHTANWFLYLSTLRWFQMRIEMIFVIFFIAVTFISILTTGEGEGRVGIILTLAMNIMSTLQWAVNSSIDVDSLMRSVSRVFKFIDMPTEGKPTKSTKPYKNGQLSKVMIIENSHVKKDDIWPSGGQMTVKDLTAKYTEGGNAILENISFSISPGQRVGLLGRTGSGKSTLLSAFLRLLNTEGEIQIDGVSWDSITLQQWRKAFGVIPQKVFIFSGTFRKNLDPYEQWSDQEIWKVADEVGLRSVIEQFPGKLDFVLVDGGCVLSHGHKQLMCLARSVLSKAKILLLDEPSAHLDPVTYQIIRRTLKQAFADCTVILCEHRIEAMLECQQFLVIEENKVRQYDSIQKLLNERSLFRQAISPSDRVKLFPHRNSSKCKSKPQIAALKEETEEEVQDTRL
In short: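 CFBE41o– cells stably co-expressing F508del-CFTR and HS-YFP were treated with compounds 24 h after seeding; VX-809 (1 μM) served as positive control. F508del-CFTR was stimulated with forskolin (20 μM) plus VX-770 (1 μM) for 25 min before iodide injection. I– influx rate was taken as initial slope (dF/dt) from an exponential fit of YFP quenching.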

[2] = molecular target: T1, recombinant truncated RNF5 (aa 1–117) (Homo sapiens, UniProt Q99942); test: MicroScale Thermophoresis (MST) binding check; settings: RED-NHS labeled RNF5 (aa 1–117); compound at maximum concentration allowed by solubility (12: 100 M [sic])
T1 construct: human RNF5 protein (aa 1–117) truncated to exclude the transmembrane domains; GST (followed by TEV protease site) (N, cleaved yes); host or cells: Escherichia coli BL21(DE3)
T1 sequence (Q99942 1-117): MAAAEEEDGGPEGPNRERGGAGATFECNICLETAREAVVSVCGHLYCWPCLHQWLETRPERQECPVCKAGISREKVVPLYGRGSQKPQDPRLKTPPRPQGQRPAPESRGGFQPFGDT
From the text: The bindings of compounds 12, 40, and 42 were initially evaluated by MicroScale Thermophoresis (MST) using a purified recombinant truncated form of RNF5 (aa 1–117), lacking the C-terminal transmembrane domains. The protein was covalently labeled with a red dye (NHS) on the primary amines (lysine residues). […] NMR experiments on the recombinant RNF5 form were further performed to test the direct binding of the three compounds to the protein with a more sensitive, label-free, independent approach. Analogs 12, 40, and 42 were tested at 50 μM in the absence and in the presence of 3 μM RNF5 (1–117) protein. […] Indeed, for all three compounds, the NMR signals of their methyls are present in the STD spectra, and in the WaterLOGSY spectra, their signals change from negative to positive in the presence of the protein, indisputably highlighting the formation of compound–protein binding events. […] It has to be noted that NMR is a very sensitive technique that allows detecting also compounds weakly binding to their target protein independent of the possible downstream biological effects. Indeed, we can speculate that compounds 40 and 42 may bind to RNF5 without inhibiting its ubiquitin ligase activity, thus not leading to mutant CFTR rescue. These compounds could even act as RNF5 activators, similar to analog-1.
A construct coding for human RNF5 protein (aa 1–117) truncated to exclude the transmembrane domains, with an N-terminal GST-tag followed by the recognition site for TEV protease (pET vector backbone), was purchased from CliniSciences. A similar construct was recently described in the work of Ruan et al.[44] […]
Purified RNF5 was labeled using a Monolith protein labeling kit RED-NHS 2nd generation (NanoTemper Technologies, München, Germany) following manufacturer’s instructions. Labeled protein (5 nM) was first tested in a pre-test assay for optimal fluorescence, absence of aggregation, and sticking to capillaries using MST buffer [PBS, 0.05% Tween-20, 0.1% PEG-8000, 1 μM ZnCl2] with or without 1 mM DTT. […]

direct binding to RNF5 by MST (binding check) [2]	SMILES	F508del-CFTR corrector activity compared with inh-2 (CFTR activity, primary screen) [1]	improvement of the rescue elicited by the double combination VX-661 + VX-445 ([1]; CFBE41o– cells, 24 h)	mutant CFTR activity upon co-treatment with VX-809 or VX-445 ([1]; CFBE41o– cells, 24 h)	F508del-CFTR activity in cells transfected with NT or RNF5 siRNA ([1]; CFBE41o– cells, 16 5 μM alone or combined with VX-661 + VX-445 (10 μM + 3 μM), 24 h)
observed only for compound 12	Cc1ns/c(=N\c2ccccn2)n1Cc1ccccc1 [Compound 42, (Z)-4-Benzyl-3-methyl-N-(pyridin-2-yl)-1,2,4-thiadiazol-5(4H)-imine]	inactive compounds; also recorded: almost inactive as CFTR correctors	–	–	–
–	Cc1ns/c(=N\C(=N\c2ccccc2)c2ccccc2)n1Cc1ccccc1 [inh-2, reference compound]	–	only analogue 16 was able to further improve the rescue	significantly increased mutant CFTR activity	–
observed only for compound 12	Cc1ns/c(=N\C(=N\c2ccncc2)c2ccccc2)n1Cc1ccccc1 [Compound 40, (E)-N-((Z)-4-Benzyl-3-methyl-1,2,4-thiadiazol-5(4H)-ylidene)-N′-(pyridin-4-yl)benzimidamide]	inactive analogs; also recorded: almost inactive as CFTR correctors	–	–	–
–	COc1cccc(Cn2c(C)ns/c2=N\C(=N\c2ccccc2)c2ccccc2)c1 [Compound 16, (E)-N-((Z)-4-(3-Methoxybenzyl)-3-methyl-1,2,4-thiadiazol-5(4H)-ylidene)-N′-phenylbenzimidamide]	increased activity; also recorded: greater F508del-CFTR rescue than inh-2	able to further improve the rescue	significantly increased mutant CFTR activity	increased the F508del-CFTR activity only in cells transfected with NT siRNA, but not in those transfected with RNF5 siRNA

SMILES	direct binding to RNF5 by MST (binding check) [2]	F508del-CFTR corrector activity compared with inh-2 (CFTR activity, primary screen) [1]	improvement of the rescue elicited by the double combination VX-661 + VX-445 ([1]; CFBE41o– cells, 24 h)	mutant CFTR activity upon co-treatment with VX-809 or VX-445 ([1]; CFBE41o– cells, 24 h)	F508del-CFTR activity in cells transfected with NT or RNF5 siRNA ([1]; CFBE41o– cells, 16 5 μM alone or combined with VX-661 + VX-445 (10 μM + 3 μM), 24 h)
Cc1ns/c(=N\C(=N\c2ccccc2)c2ccccc2)n1Cc1ccc(C(=O)O)cc1 [Compound 12, 4-(((Z)-3-Methyl-5-(((E)-phenyl(phenylimino)methyl)imino)-1,2,4-thiadiazol-4(5H)-yl)methyl)benzoic Acid]	compound 12 is binding to RNF5; also recorded: evidence of direct binding	reduced potency; also recorded: lower F508del-CFTR activity compared to inh-2	–	–	–
